Experimental data published in patent US20230270855A1, “Genetically Modified T-Cells and PI3K/AKT Inhibitors For Cancer Treatment” (The Research Foundation for The State of University New York, priority 2018, published 2023).

Key:
[1] = target: Akt2W80A (Homo sapiens, UniProt P31751, W80A); settings: previous studies; cited from earlier work
[2] = target: Akt1W80A (Homo sapiens, UniProt P31749, W80A); settings: previous studies; cited from earlier work
[3] = system: WT KPC pancreatic tumors; test: Adoptive transfer of PI3K mutant-expressing T-cells plus BYL719 in tumor-bearing mice; assay type: in vivo; settings: WT mice implanted with WT KPC cells
Procedure: To test the anti-tumor efficacy of CTLKPC clones that express one or more PI3K p110α mutants, one or more PI3K p110δ mutants or combinations of PI3K p110α and p110δ mutants, respectively, in vivo, WT mice are implanted with 0.5 million WT KPC cells in the pancreas. After 2 weeks, the pancreatic tumors are well established and are quantified by IVIS imaging. […] Changes in tumor size are monitored by IVIS imaging and survival curves are constructed. Post-mortem examination is performed as described above for analyzing the pancreas. Tumor regression is observed only in the groups that receive adoptive transfer of PI3K mutant-expressing T-cells, plus concurrent treatment with the appropriate PI3K inhibitor.

Sequence of Akt1W80A (P31749 whole entry W80A): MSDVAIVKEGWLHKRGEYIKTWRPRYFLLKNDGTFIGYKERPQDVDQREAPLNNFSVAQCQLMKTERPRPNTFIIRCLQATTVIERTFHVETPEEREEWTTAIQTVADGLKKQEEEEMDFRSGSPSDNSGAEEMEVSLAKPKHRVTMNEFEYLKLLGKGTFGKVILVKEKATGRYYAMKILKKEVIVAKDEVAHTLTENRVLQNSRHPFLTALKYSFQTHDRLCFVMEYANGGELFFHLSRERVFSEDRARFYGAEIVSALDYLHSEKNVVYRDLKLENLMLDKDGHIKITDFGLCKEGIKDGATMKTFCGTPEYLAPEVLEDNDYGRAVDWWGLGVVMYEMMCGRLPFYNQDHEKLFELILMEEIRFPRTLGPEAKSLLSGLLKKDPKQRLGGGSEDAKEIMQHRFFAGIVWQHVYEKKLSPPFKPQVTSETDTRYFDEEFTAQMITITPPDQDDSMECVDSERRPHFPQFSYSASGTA
Sequence of Akt2W80A (P31751 whole entry W80A): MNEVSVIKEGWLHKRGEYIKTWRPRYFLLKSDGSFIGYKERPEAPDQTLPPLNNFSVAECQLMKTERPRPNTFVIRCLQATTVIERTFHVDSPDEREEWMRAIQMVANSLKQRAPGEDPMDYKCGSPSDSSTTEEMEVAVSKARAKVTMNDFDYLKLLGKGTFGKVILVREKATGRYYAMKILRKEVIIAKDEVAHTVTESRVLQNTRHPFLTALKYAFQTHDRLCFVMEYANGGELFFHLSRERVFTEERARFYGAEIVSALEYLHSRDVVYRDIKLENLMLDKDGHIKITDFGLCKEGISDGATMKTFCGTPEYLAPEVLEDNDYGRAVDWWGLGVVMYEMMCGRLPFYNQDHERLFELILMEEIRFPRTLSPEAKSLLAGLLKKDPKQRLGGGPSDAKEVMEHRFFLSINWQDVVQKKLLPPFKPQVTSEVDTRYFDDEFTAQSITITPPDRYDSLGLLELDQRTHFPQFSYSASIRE

Structure (SMILES) | inhibition of Akt2W80A mutant [1] | inhibition of Akt1W80A mutant [2] | survival [3]
NC1(c2ccc(-c3nc4ccn5c(=O)[nH]nc5c4cc3-c3ccccc3)cc2)CCC1 [MK2206] | completely resistant | completely resistant | 
Cc1nc(NC(=O)N2CCC[C@H]2C(N)=O)sc1-c1ccnc(C(C)(C)C(F)(F)F)c1 [BYL719] |  |  | all die from pancreatic tumor progression
